Results: US20070219128A1, “Medical and health-care uses of pufferfish type I collagen extract and processes for producing said extract” (NANJING BESSON PHARMACY CO., LTD, priority 2003, published 2007)

Legend:
[1] = system: anhydrous ethanol-induced rat gastric mucosa damage; assay: Anhydrous ethanol-induced rat gastric mucosa damage; type: in vivo, SD rats; details: 100 mg/kg, ig; mean ± SD
Experimental: 60 SD rats with equal numbers of female and male were provided by the Experimental Animal Center of Nanjing Medical University, and the tests were conducted according to the methods in “Collection of Guidelines for Preclinical Studies of New Drugs (Western Medicines)” edited by China Ministry of Health.

[2] = system: PGE2 content in gastric mucosa; assay: PGE2 content in gastric mucosa of rat with indomethacin-induced gastric ulcer (radioimmunoassay); type: in vivo, SD rats; details: 100 mg/kg; mean ± SD
Experimental: 60 SD rats with a body weight of 180 to 200 g and equal numbers of male and female were used, Indomethacin was commercially available from Sigma Company. The PGE2 content was measured by radioimmunoassay. The tests were conducted according to the methods in “Drug Discovery and Evaluation—Pharmacological Assays” (H. G. Vogel, W. H. Vogel. Chinese version, translated by Du Guanhua, published by Science Publishing House).

[3] = system: acetic acid-induced rat colonitis; assay: 10% acetic acid-induced rat ulcerative colonitis; type: in vivo, SD rats; details: 10 mg/kg, mean ± SD
Experimental: The test was conducted according to the method in the document (Ritzpatrick, R. et al., Agents Actions. 1990, 30:393-402). SD rats were subjected to rectoclysis to form models of colonitis. From the 4th day after the models had been made, the rats were intragastrically administrated for 4 days.

[4] = system: cysteamine-induced rat duodenal ulcer; assay: Cysteamine-induced rat duodenal ulcer; type: in vivo, SD rats; details: 20 mg/kg
Experimental: 50 male SD rats with a body weight of 250 to 300 g were used, and cysteamine was commercially available from Sigma Company. The tests were conducted according to the methods in “Drug Discovery and Evaluation—Pharmacological Assays” (H. G. Vogel, W. H. Vogel. Chinese version, translated by Du Guanhua, published by Science Publishing House).

[5] = system: TNBS-induced rat colonitis; assay: TNBS-induced rat colonitis; type: in vivo, SD rats; details: 0.3 g/kg, intragastric for 7 days; mean ± SD
Experimental: The test was counted according to the method in the document (Morris, C. P. et al: Gastroenterology. 1989, 96:795-803). TNBS was commercially available from Sigma Company. SD rats were subjected to rectoclysis of 100 mg/kg of TNBS to form models of colonitis. Each group included 10 rats. From the 14th day after the models had been made, the rats were intragastrically administrated for 7 days. The rats were killed by drawing their necks and were dissected, and their colon sections were histopathologically observed.

mouse gastric emptying = assay: Mouse gastric emptying (phenol red method); type: in vivo, Kunming mice; details: 0.1 mg/kg; mean ± SD
Experimental: 105 Kunming mice with a body weight of from 20 to 25 g and equal numbers of male and female were used. The test was conducted according to the methods in “Collection of Guidelines for Preclinical Studies of New Drugs (Western Medicines)” edited by China Ministry of Health, and the phenol red method (Shi G., et al. Gut, 41:612-618, 1997).

[6] = system: acetic acid-burn induced gastric ulcer in rats; assay: Acetic acid-burn induced gastric ulcer in rats; type: in vivo; details: 80 mg/kg, ig; mean ± SD
Experimental: 50 SD rats with a body weight of 180 to 200 g and equal numbers of female and male were provided by the Experimental Animal Center of Nanjing Medical University, and the tests were conducted according to the methods in “Collection of Guidelines for Preclinical Studies Of New Drugs (Western Medicines)” edited by China Ministry of Health.

[7] = system: pylorus-ligated Shay rat gastric ulcer; assay: Pylorus-ligated Shay rat gastric ulcer; type: in vivo, SD rats; details: 80 mg/kg, ig; mean ± SD
Experimental: 50 SD rats with a body weight of 180 to 200 g and equal numbers of female and male were provided by the Experimental Animal Center of Nanjing Medical University, and the tests were conducted according to the methods in “Collection of Guidelines for Preclinical Studies of New Drugs (Western Medicines)” edited by China Ministry of Health.

Question: Which results are given for Bismuth Potassium Citrate?
Answer: Ulcer index [1]: 15.0 ± 6.0; PGE2 (pg/mg protein) [2]: 170 ± 104 pg/mg protein

Question: For `NC(N)=Nc1nc(CSCCC(N)=NS(N)(=O)=O)cs1` [Famotidine], which “Score of ulcer index” value ([3]; intragastric for 4 days) is on record?
Answer: 4.14 ± 3.76

Question: And the “Ratio of bowel weight to body weight (×10^−2)” value [3]?
Answer: 0.92 ± 0.45 ×10^−2

Question: And the “Inhibition ratio (%)” value [4]?
Answer: 27.27%

Question: And the Ulcer index ([4]; mean ± SD)?
Answer: 2.0 ± 1.3

Question: How did the “Increment of body weight” value [5] turn out when `O=C(O)c1cc(/N=N/c2ccc(S(=O)(=O)Nc3ccccn3)cc2)ccc1O` [Sulfasalazine] was run?
Answer: 68.89 ± 21.64

Question: How did the “Amount of residual phenol red in stomach” value (mouse gastric emptying) turn out when `CN(C)C(=O)Oc1ccc[n+](C)c1` [Pyridostigmine bromide] was run?
Answer: 0.47 ± 0.36 mg

Question: And the “Gastric emptying ratio (%)” value (mouse gastric emptying)?
Answer: 93.8 ± 4.8 %

Question: Which “Ulcer area (mm^2)” value [6] does the source give for `CN/C(=N/CCSCc1nc[nH]c1C)NC#N` [Cimetidine] here?
Answer: 44.7 ± 38.4 mm^2

Question: And the Ulcer index [7]?
Answer: 15.8 ± 1.5
